The values that follow come from patent US8765746B2 (Millennium Pharmaceuticals, Inc., priority 2010, dated 2014).

pIC50: −log10 of the molar value. Where only a bound is given, the exact number is not on record here.

For one assay, the target named is T1, PI3Kbeta (Homo sapiens, UniProt P42338).
T1 construct: His (N); host or cells: SF9 insect cells (baculovirus)
The assay is described as follows: Human PI3K beta enzyme assay (HTRF, as for PI3K alpha). The following applies: for inhibition at 1.11 µM: read-out: PI3Kbeta % inh; for inhibition at 1.11 µM / PI3Kbeta % inh: at 1.11 μM; for pIC50: read-out: IC50 (inhibit PI3Kbeta). In kind it is biochemical. The text has this:
(§1) The catalytic subunits of PI3Ks are cloned into either pDEST8(p110 alpha) or pDEST10(p110beta, p110delta, and p110gamma) as N-terminal His tagged fusion proteins using the Gateway system (Invitrogen, catalog#11804-010 for pDEST8 and 11806-015 for pDEST10). The sequences are verified before recombinant protein expression using the Baculovirus Expression System with Gateway® Technology. The accession numbers for the subunits are as follows:
(§2) The regulatory subunits of PI3Ks are cloned into pDEST8 as un-tagged protein using the Gateway system (Catalog#11804-010). The sequences are verified before recombinant protein expression using the Baculovirus Expression System with Gateway® Technology. The accession numbers for the subunits are as follows:
(§3) For expression of the p110 complexes, the p85 (MOI of 4) is co-infected with p110 alpha, beta, and delta respectively (1MOI) in SF9 cells and harvested at 60 hours post co-infection. P110 gamma was infected at 1 MOI and harvested at 60 hours post infection.
(§4) For purification, PI3Ks are purified by Ni-NTA Agarose (Qiagen #30250) followed by Mono Q 10/100 GL (Ge Healthcare #17-5167-01). VPS34 is purified by Glutathione Sepharose 4 Fast Flow (GE Healthcare #17-5132-03) followed by HiTrap Q (GE Healthcare #17-1153-01).
(§5) 0.5 uL compounds in DMSO are added to wells of a 384 well microtitre plate (Corning 3575). At room temperature: 10 ul PI3K reaction buffer (50 mM Hepes, 5 mM DTT, 150 mM NaCl, 10 mM beta-glycerophosphate, 10 mM MgCl2, 0.25 mM sodium cholate and 0.001% CHAPS, pH 7.00) containing ATP (25 uM, Promega) is added followed immediately by 10 ul PI3K reaction buffer containing di-C8 PI(4,5)P2 (3.5 uM, CellSignals) and PI3Kalpha (0.4875 nM, Millennium Protein Sciences Group) and the mixture is incubated with shaking at room temperature for 30 minutes. Then 5 ul PI3K stop mix (50 mM Hepes, 5 mM DTT, 150 mM NaCl, 0.01% Tween-20, 15 mM EDTA and 25 nM biotin-PI(3,4,5)P3 (Echelon) is added to quench the reaction followed immediately by addition of 5 ul HTRF detection mix (50 mM Hepes, 5 mM DTT, 150 mM NaCl, 0.01% Tween-20, 40 mM KF, 10 nM GST:GRP-1 PH domain (Millennium Protein Sciences Group), 15 nM Streptavidin-XL (CisBio) and 0.375 nM anti-GST Eu++ antibody (CisBio) at pH 7.00). The plates are then incubated for 1 hour at room temperature with shaking and then read on a BMG PheraStar Plus reader.
2) Human PI3K beta, delta and gamma isoforms are tested using the procedure described for PI3K alpha above but with the following changes: PI3K beta (5.25 nM), PI3K delta (0.75 nM) and PI3K gamma (5 nM). All isoforms supplied by Millennium Protein Science Group.
On the technique in general: Time-resolved FRET reads energy transfer from a long-lived donor to a nearby acceptor.

The target of the next assay is T2, PI3Kalpha (Homo sapiens, UniProt P42336).
T2 construct: His (N); host or cells: SF9 insect cells (baculovirus)
Put plainly: Human PI3Kα enzyme assay (HTRF). In kind it is biochemical. The following applies: for inhibition at 1.11 µM: read-out: PI3Kalpha % inh; for PI3Kalpha % inh: at 1.11 μM.
Source text: as §1, §2, §3, §4
1) Human PI3Kα enzyme assay method
as §5

T1 sequence (P42338 whole entry): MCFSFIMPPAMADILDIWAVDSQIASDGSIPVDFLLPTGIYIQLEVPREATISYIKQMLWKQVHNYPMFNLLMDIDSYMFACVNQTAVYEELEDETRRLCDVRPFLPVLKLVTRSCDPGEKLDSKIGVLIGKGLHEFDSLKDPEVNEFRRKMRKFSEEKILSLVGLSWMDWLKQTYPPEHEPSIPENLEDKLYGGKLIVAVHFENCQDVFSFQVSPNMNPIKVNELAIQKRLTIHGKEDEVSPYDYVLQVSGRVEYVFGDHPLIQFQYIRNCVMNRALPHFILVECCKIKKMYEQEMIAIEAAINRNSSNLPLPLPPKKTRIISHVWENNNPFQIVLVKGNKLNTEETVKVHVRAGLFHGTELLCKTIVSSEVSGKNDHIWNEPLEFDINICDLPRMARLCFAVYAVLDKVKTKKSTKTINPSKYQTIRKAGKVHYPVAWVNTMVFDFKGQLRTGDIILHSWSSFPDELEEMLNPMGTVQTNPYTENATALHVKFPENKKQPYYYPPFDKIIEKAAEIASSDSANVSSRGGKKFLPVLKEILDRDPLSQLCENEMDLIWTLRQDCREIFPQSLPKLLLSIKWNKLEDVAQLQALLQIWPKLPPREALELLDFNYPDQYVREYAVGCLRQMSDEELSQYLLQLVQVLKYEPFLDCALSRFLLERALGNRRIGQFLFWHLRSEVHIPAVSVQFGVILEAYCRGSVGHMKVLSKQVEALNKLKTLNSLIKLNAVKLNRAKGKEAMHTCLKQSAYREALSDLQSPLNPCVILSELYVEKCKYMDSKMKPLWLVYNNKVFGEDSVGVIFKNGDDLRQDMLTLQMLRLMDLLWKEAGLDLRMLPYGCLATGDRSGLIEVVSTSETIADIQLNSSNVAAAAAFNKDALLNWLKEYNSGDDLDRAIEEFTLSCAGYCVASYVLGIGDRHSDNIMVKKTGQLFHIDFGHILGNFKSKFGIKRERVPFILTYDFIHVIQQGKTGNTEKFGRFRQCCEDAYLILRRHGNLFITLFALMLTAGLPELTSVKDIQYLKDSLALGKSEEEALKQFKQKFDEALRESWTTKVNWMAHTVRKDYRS
T1 sequence (P27986 whole entry partner): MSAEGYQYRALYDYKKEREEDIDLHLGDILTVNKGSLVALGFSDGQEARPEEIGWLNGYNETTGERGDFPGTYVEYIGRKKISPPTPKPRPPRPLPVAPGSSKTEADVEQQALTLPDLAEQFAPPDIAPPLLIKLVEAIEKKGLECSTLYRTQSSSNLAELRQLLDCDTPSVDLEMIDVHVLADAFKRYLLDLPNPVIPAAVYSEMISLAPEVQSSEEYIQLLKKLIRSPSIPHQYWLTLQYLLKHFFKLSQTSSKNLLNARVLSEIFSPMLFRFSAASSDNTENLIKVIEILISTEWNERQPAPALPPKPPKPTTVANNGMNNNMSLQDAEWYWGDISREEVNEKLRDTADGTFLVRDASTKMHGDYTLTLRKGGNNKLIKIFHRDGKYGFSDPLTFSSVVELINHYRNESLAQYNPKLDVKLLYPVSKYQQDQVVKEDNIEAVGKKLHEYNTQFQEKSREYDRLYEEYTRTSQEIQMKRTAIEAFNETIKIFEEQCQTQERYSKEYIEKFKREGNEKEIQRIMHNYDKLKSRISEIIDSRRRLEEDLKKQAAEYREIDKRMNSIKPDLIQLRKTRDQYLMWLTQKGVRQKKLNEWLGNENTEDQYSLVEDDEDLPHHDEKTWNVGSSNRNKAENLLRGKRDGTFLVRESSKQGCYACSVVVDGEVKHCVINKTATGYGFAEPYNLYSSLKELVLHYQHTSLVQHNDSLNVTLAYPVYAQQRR
T2 sequence (P42336 whole entry): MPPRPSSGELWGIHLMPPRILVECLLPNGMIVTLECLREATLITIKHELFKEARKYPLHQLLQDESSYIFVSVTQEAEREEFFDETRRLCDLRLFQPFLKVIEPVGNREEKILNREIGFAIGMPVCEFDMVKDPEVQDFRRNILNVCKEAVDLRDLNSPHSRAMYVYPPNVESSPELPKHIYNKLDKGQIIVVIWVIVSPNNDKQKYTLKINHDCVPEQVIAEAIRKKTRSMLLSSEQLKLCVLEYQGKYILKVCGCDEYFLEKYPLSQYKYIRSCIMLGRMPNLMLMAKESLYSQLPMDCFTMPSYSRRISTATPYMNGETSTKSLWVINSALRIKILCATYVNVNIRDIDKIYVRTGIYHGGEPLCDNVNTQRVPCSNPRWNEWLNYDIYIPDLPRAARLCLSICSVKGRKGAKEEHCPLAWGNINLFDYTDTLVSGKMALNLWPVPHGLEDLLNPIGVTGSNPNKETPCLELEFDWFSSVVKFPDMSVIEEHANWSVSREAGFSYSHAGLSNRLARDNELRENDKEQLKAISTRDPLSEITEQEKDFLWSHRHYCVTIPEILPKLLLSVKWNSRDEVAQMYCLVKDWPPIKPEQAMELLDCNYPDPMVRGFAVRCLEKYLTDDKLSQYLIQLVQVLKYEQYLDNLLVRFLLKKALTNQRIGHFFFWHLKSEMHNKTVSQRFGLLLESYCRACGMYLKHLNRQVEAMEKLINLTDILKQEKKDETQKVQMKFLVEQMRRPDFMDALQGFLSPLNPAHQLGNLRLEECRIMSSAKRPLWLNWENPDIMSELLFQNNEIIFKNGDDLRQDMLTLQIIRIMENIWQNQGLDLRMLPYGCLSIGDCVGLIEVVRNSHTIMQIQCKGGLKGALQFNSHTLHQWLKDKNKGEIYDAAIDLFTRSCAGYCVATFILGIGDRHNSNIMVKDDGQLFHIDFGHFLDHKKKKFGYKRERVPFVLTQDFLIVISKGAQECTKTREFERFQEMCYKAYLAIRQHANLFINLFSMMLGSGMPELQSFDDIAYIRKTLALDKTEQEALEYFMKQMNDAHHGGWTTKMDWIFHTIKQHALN
T2 sequence (P27986 whole entry partner): as the sequence (P27986 whole entry partner) above

For `COC(=O)[C@@H]1NC(=O)c2sc(N3CCOCC3)cc2[C@H]1c1ccc(Cl)c(Cl)c1` (relative stereo) [Compound 127, methyl rel-(4R,5R)-4-(3,4-dichlorophenyl)-2-(morpholin-4-yl)-7-oxo-4,5,6,7-tetrahydrothieno[2,3-c]pyridine-5-carboxylate], the results for the inhibition at 1.11 µM on PI3Kbeta and at PI3Kalpha were 75.8% and 31.4%, respectively.

On to `CNC(=O)[C@@H]1NC(=O)c2sc(-c3ccnc(C)c3)cc2[C@H]1c1ccc(Cl)cc1` (relative stereo) [Compound 138, rel-(4R,5R)-4-(4-chlorophenyl)-N-methyl-2-(2-methylpyridin-4-yl)-7-oxo-4,5,6,7-tetrahydrothieno[2,3-c]pyridine-5-carboxamide], for which the inhibition at 1.11 µM on PI3Kbeta amounted to 64.6%; on PI3Kalpha, 7.29%.

Turning to `O=C1N[C@@H](C(=O)O)[C@H](c2ccc(Cl)c(Cl)c2)c2cc(N3CCOCC3)sc21` (relative stereo) [Compound 142, rel-(4R,5R)-4-(3,4-dichlorophenyl)-2-(morpholin-4-yl)-7-oxo-4,5,6,7-tetrahydrothieno[2,3-c]pyridine-5-carboxylic acid], the inhibition at 1.11 µM on PI3Kbeta came to 72%; on PI3Kalpha, 16.7%.

For orientation: pIC50 means the negative decadic logarithm of the IC50, by convention in mol/L. Take `O=C1CCC(c2ccc(Cl)cc2)c2cc(-c3ccncc3)sc21` (single isomer, unassigned) [Compound 4, 4-(4-chlorophenyl)-2-pyridin-4-yl-5,6-dihydro-1-benzothiophen-7(4H)-one]: on PI3Kbeta, the PI3Kbeta % inh is recorded as 14.400% and the negative logarithm of the IC50 (pIC50) is < 6.00. Also, the PI3Kalpha % inh on PI3Kalpha is −0.100%.

Turning to `O=C1NCC(c2ccc(Cl)cc2)c2c1sc(N1CCOCC1)c2C#Cc1ccccc1` (single isomer, unassigned) [Compound 137, 4-(4-chlorophenyl)-2-(morpholin-4-yl)-3-(phenylethynyl)-5,6-dihydrothieno[2,3-c]pyridin-7(4H)-one], the values for the inhibition at 1.11 µM on PI3Kbeta and at PI3Kalpha were 80.8% and 16.1%, respectively.

As to `C=Cc1c(N2CCOCC2)sc2c1C(c1ccc(Cl)cc1)CNC2=O` (single isomer, unassigned) [Compound 143, 4-(4-chlorophenyl)-2-(morpholin-4-yl)-3-vinyl-5,6-dihydrothieno[2,3-c]pyridin-7(4H)-one], the inhibition at 1.11 µM on PI3Kbeta amounted to 82.5%; on PI3Kalpha it was 10%.

In the case of `O=C1NCC(c2ccc(Cl)cc2)c2c1sc(N1CCOCC1)c2CO` (single isomer, unassigned) [Compound 178, 4-(4-chlorophenyl)-3-(hydroxymethyl)-2-(morpholin-4-yl)-5,6-dihydrothieno[2,3-c]pyridin-7(4H)-one], the inhibition at 1.11 µM on PI3Kbeta was 40.2%; at PI3Kalpha, 4.71%.

In the case of `O=C1NCC(c2ccc(Cl)cc2)c2c1sc(N1CCOCC1)c2Br` (single isomer, unassigned) [Compound 181, 3-bromo-4-(4-chlorophenyl)-2-(morpholin-4-yl)-5,6-dihydrothieno[2,3-c]pyridin-7(4H)-one], the inhibition at 1.11 µM at PI3Kbeta turned out to be 69.5%; on PI3Kalpha, 8.59%.

`O=Cc1c(N2CCOCC2)sc2c1C(c1ccc(Cl)cc1)CNC2=O` (single isomer, unassigned) [Compound 193, 4-(4-chlorophenyl)-2-(morpholin-4-yl)-7-oxo-4,5,6,7-tetrahydrothieno[2,3-c]pyridine-3-carbaldehyde]: the values for the inhibition at 1.11 µM on PI3Kbeta and on PI3Kalpha were 79.1% and 11.1%, respectively.

As for `CC1(C)CC(=O)c2sc(-c3ccncc3)cc2C1(O)c1ccc(Cl)cc1` (centres unmarked) [Compound 5, 4-(4-chlorophenyl)-4-hydroxy-5,5-dimethyl-2-pyridin-4-yl-5,6-dihydro-1-benzothiophen-7(4H)-one], at PI3Kbeta, the inhibition at 1.11 µM is 32.8% and the negative logarithm of the IC50 (pIC50) is < 6.00. Besides, the inhibition at 1.11 µM on PI3Kalpha was -3.8%.

`O=C1OC2(CCC(=O)c3sc(-c4ccncc4)cc32)c2ccc(Cl)cc21` (centres unmarked) [Compound 14, 5-chloro-2′-pyridin-4-yl-5′,6′-dihydro-3H,7′H-spiro[2-benzofuran-1,4′-[1]benzothiophene]-3,7′-dione]: on PI3Kbeta, the inhibition at 1.11 µM was found to be 31.9% and the pIC50 was < 6.00. For the same compound, at PI3Kalpha, the inhibition at 1.11 µM is 8.7%.

Turning to `CC(=O)Nc1cc(-c2cc3c(s2)C(=O)CC3c2ccc(Cl)cc2)ccn1` (centres unmarked) [Compound 16, N-(4-(4-(4-chlorophenyl)-6-oxo-5,6-dihydro-4H-cyclopenta[b]thiophen-2-yl)pyridin-2-yl)acetamide], on PI3Kbeta, the inhibition at 1.11 µM worked out at 54.5% and the pIC50 was 6.00 to 7.00. The inhibition at 1.11 µM at PI3Kalpha stood at 24.5%.

Compound `N#Cc1c(N2CCOCC2)sc2c1C(c1ccc(Cl)c(Cl)c1)CCNC2=O` (centres unmarked) [Compound 116] had a PI3Kbeta % inh on PI3Kbeta of 66.61%. Moreover, the PI3Kalpha % inh at PI3Kalpha was 36.43%.

`O=C1N[C@@H](CO)CC(c2ccc3ccccc3c2)c2nc(N3CCOCC3)sc21` (some centres unmarked) [Compound 120] displayed a PI3Kbeta % inh at PI3Kbeta of 44.05%. Further, the PI3Kalpha % inh on PI3Kalpha is reported as 12.90%.

For `CNC(=O)[C@@H]1NC(=O)c2sc(C3=CCOCC3)cc2[C@H]1c1ccc(Cl)cc1` [Compound 121], the PI3Kbeta % inh on PI3Kbeta turned out to be 104.98%. Moreover, on PI3Kalpha, the PI3Kalpha % inh is 40.77%.

Take `O=C1NCC(c2ccc(Cl)cc2)c2c1sc(N1CCOCC1)c2C#Cc1cccnc1` (centres unmarked) [Compound 122]: the inhibition at 1.11 µM stood at 128% at PI3Kbeta and 97.8% at PI3Kalpha.

Take `CN(C)CC#Cc1c(N2CCOCC2)sc2c1C(c1ccc(Cl)cc1)CNC2=O` (centres unmarked) [Compound 130]: the inhibition at 1.11 µM on PI3Kbeta was determined as 116%; at PI3Kalpha, 58.1%.

Regarding `O=C1NCCC(c2ccc3ccccc3c2)c2nc(N3CCOCC3)sc21` (centres unmarked) [Compound 131], the PI3Kbeta % inh on PI3Kbeta came to 85.03%. For the same compound, the PI3Kalpha % inh at PI3Kalpha came out at 9.87%.

As for `CNC(=O)[C@@H]1NC(=O)c2sc(N3CCOCC3)cc2[C@H]1c1ccc(Cl)c(Cl)c1` [Compound 132], the inhibition at 1.11 µM on PI3Kbeta came to 115%; on PI3Kalpha, 54%.

Take `N#Cc1c(N2CCOCC2)sc2c1C(c1ccc3ccccc3c1)CNC2=O` (centres unmarked) [Compound 135, 2-(morpholin-4-yl)-4-(2-naphthyl)-7-oxo-4,5,6,7-tetrahydrothieno[2,3-c]pyridine-3-carbonitrile]: the inhibition at 1.11 µM on PI3Kbeta is 121%; on PI3Kalpha it was 89.8%.

In the case of `COC(=O)C1C(=O)c2sc(N3CCOCC3)cc2C1c1ccc(Cl)c(Cl)c1` (centres unmarked) [Compound 139, methyl 4-(3,4-dichlorophenyl)-2-(morpholin-4-yl)-6-oxo-5,6-dihydro-4H-cyclopenta[b]thiophene-5-carboxylate], the inhibition at 1.11 µM at PI3Kbeta was 95.6%; at PI3Kalpha it was 14.4%.

Regarding `C=CCC1(C(=O)OC)NC(=O)c2sc(N3CCOCC3)cc2C1c1ccc(Cl)c(Cl)c1` (centres unmarked) [Compound 154, methyl 5-allyl-4-(3,4-dichlorophenyl)-2-(morpholin-4-yl)-7-oxo-4,5,6,7-tetrahydrothieno[2,3-c]pyridine-5-carboxylate], the inhibition at 1.11 µM on PI3Kbeta is 75.5%; on PI3Kalpha it was 10.9%.

For `CNC(=O)[C@H]1NC(=O)c2sc(N3CCOCC3)cc2[C@H]1c1ccc(Cl)cc1` [Compound 157], the inhibition at 1.11 µM came out at 111% on PI3Kbeta and 30.1% at PI3Kalpha.

For the compound `N#Cc1c(N2CCOCC2)sc2c1C(c1ccc(Cl)c(Cl)c1)CNC2=O` (centres unmarked) [Compound 159], the inhibition at 1.11 µM came out at 118% on PI3Kbeta and 67.2% at PI3Kalpha.

As for `CNC(=O)[C@@H]1NC(=O)c2sc(-c3ccncc3)cc2[C@H]1c1ccc(Cl)cc1` [Compound 160], at PI3Kbeta, the PI3Kbeta % inh stood at 76.80%. In addition, at PI3Kalpha, the PI3Kalpha % inh came to 11.18%.

On to `O=C1NCCC(c2ccc3ccncc3c2)c2nc(N3CCOCC3)sc21` (centres unmarked) [Compound 165], for which the inhibition at 1.11 µM at PI3Kbeta stood at 109%; on PI3Kalpha, 13.3%.
